# Source: US9006450B2 (Boehringer Ingelheim International GmbH, priority 2010, dated 2015)
# Target: T1, human ACC2 (Homo sapiens, UniProt O00763)
# T1 construct: made in house; host or cells: insect cells (baculoviral expression system)
# Experiment: ACC2 assay, spectrophotometric 384 well assay (NADH-linked, coupled lactate dehydrogenase/pyruvate kinase)
# Format: biochemical
# Details: ACC2 assay, hACC2 construct lacking 128 N-terminal amino acids, 25° C., 340 nm; read-out: IC50
# Method in brief: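 ADP output tracked via pyruvate kinase/lactate dehydrogenase NADH oxidation, slope at 340 nm over 15 min, 25° C, with 500 μM ATP and 200 μM each acetyl-CoA and NADH. Enzyme: insect-cell-expressed human ACC2, N-terminal 128 residues deleted; pH 7.5 Tris with citrate, KHCO3. IC50 from four-parameter regression versus vehicle and no-acetyl-CoA controls.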
# T1 sequence (O00763 129-2458 limits assumed): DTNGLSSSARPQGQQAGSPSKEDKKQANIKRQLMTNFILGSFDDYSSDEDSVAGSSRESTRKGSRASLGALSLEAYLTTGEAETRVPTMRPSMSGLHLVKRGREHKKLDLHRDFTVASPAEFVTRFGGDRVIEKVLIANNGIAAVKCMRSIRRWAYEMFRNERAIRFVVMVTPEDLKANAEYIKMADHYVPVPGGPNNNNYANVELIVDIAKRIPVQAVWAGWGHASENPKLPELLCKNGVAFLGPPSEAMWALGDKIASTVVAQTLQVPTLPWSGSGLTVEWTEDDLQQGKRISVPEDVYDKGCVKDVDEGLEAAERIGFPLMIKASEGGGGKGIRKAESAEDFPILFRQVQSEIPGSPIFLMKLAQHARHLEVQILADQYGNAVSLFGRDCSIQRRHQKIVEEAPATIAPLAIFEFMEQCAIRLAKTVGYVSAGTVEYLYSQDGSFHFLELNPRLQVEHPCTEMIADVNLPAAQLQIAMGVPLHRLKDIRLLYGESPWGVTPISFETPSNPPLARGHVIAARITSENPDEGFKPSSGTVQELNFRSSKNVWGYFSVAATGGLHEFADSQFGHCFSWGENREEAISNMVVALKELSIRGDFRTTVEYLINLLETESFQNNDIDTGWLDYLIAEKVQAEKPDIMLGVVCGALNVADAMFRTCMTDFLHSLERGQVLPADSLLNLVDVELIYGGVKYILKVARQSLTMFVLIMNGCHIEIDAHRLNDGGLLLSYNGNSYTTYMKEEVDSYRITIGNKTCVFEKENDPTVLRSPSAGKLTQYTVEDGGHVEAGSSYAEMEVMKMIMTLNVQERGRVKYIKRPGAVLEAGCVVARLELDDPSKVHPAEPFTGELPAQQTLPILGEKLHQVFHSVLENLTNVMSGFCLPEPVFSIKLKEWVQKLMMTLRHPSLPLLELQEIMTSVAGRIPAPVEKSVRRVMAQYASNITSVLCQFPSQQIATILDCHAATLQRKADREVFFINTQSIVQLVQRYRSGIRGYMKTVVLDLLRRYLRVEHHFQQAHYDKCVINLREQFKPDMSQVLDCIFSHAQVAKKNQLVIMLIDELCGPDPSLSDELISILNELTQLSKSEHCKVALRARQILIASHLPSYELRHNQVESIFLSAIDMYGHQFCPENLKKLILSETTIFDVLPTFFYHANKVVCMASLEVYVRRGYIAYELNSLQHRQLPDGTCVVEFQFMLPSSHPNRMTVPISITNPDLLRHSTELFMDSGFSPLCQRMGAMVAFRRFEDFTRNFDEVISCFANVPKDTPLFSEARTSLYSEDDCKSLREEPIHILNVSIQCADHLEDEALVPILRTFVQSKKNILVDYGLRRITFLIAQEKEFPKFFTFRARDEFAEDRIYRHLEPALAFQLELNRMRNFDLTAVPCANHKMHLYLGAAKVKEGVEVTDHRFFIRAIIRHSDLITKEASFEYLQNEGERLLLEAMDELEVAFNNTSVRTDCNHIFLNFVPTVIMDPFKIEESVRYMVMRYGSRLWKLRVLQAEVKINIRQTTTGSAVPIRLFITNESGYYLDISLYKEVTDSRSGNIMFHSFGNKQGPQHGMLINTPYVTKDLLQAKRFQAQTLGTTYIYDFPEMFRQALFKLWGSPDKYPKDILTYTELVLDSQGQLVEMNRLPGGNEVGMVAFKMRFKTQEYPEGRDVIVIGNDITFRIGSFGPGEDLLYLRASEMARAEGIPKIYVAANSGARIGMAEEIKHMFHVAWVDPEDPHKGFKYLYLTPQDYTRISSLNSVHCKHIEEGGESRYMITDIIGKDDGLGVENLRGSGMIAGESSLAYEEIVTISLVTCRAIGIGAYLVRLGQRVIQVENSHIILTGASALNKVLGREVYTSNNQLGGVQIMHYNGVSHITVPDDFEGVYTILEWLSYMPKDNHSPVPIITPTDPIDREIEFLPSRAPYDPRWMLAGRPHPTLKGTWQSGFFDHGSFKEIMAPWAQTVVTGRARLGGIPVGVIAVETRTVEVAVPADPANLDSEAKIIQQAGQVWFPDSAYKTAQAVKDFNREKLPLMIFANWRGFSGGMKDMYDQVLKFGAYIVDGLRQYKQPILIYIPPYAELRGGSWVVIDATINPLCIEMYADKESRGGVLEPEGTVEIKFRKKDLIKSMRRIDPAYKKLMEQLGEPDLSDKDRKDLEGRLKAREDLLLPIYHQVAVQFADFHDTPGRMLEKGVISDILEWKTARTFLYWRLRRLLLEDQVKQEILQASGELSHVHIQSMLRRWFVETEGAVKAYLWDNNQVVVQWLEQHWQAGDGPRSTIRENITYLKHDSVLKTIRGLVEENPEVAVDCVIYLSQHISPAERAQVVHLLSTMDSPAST
row,IC50,SMILES
1,0.57 µM,CC(=O)N[C@@H](C)c1ccc(C2CCN(c3ccc(OC(C)C)c(C)c3)CC2)cc1 [Example 8.23]
2,1.6 µM,CC(=O)N[C@@H](C)c1ccc(C2CCN(c3ccc(C)cn3)CC2)cc1 [Example 5.46]
3,1.5 µM,COCc1nc2cc(N3CCC(c4ccc([C@H](C)NC(C)=O)cc4)CC3)ccc2o1 [Example 15.7]
4,0.22 µM,C[C@H](NC(=O)C1CC1)c1ccc(C2CCN(c3cc(OC4CCC4)ncn3)CC2)cc1 [Example 20.2]
5,8.4 µM,COCCOc1nccc(N2CCC(c3ccc([C@H](C)NC(C)=O)cc3)CC2)n1 [Example 11.30]
6,0.61 µM,CCOc1ccc(N2CCC(c3ccc([C@H](C)NC(=O)N(C)CC)cc3)CC2)cc1 [Example 14.51]
7,1.6 µM,"CC(=O)N[C@@H](C)c1ccc(C2CCN(c3cccc(C(=O)N4CCc5ccccc5C4)c3)CC2)cc1 [Example 29.1, (S)—N-(1-(4-(1-(3-(1,2,3,4-Tetrahydroisoquinoline-2-carbonyl)phenyl)piperidin-4-yl)phenyl)ethyl)acetamide]"
8,2.1 µM,CCOc1ccc(N2CCC(c3ccc([C@H](C)NC(=O)c4ccco4)cc3)CC2)cc1 [Example 6.4]
9,0.69 µM,COc1cccc(Oc2cc(N3CCC(c4ccc([C@H](C)NC(C)=O)cc4)CC3)ncn2)c1 [Example 11.31]
10,0.14 µM,CC(=O)N[C@@H](C)c1ccc(C2CCN(c3ccc(OCC4CC4)nc3)CC2)cc1 [Example 1.59]
11,0.2 µM,CC(=O)N[C@@H](C)c1ccc(C2CCN(c3cc(N4CCCC4)ncn3)CC2)cc1 [Example 11.113]
12,0.85 µM,CC(=O)N[C@@H](C)c1ccc(C2CCN(c3nccc(C(F)(F)F)n3)CC2)cc1 [Example 4.11]
13,0.28 µM,CC(C)Oc1cccc(N2CCC(c3ccc([C@H](C)NC(=O)N(C)C)cc3)CC2)c1 [Example 1.81]
14,0.39 µM,CCOc1cccc(-c2nccc(N3CCC(c4ccc([C@H](C)NC(C)=O)cc4)CC3)n2)c1 [Example 22.4]
15,18.1 µM,CC(=O)N[C@@H](C)c1ccc(C2CCN(c3ncc(C(=O)N(C)C4CCN(C)C4)cn3)CC2)cc1 (some centres unmarked) [Example 18.84]
16,3.4 µM,CC(C)Oc1cccc(N2CCC(c3ccc([C@H](C)NC(=O)C4CC4)cc3)CC2)c1 [Example 1.78]
17,10.4 µM,CCOc1ccc(N2CCC(c3ccc([C@H](C)NC(=O)c4cscn4)cc3)CC2)cc1 [Example 6.46]
18,9.5 µM,CC(=O)Nc1cnc(N2CCC(c3ccc([C@H](C)NC(C)=O)cc3)CC2)nc1 [Example 4.34]
19,0.24 µM,C[C@H](NC(=O)C1CC1)c1ccc(C2CCN(c3ncc(-c4ccc(C#N)cc4)cn3)CC2)cc1 [Example 10.102]
20,3.7 µM,CCOc1ccc(N2CCC(c3ccc([C@H](C)NC(=O)CO)cc3)CC2)cc1 [Example 6.48]
21,0.15 µM,CC(=O)N[C@@H](C)c1ccc(C2CCN(c3ccnc(OCC4CC4(F)F)c3)CC2)cc1 (some centres unmarked) [Example 19.26]
22,1.4 µM,CC(=O)N[C@@H](C)c1ccc(C2CCN(c3ncc(C(=O)Nc4cccc(F)c4)cn3)CC2)cc1 [Example 18.2]
23,0.09 µM,CC(=O)N[C@@H](C)c1ccc(C2CCN(c3ncc(-c4ccc(C)c(Cl)c4)cn3)CC2)cc1 [Example 10.67]
24,1.1 µM,CCCN(C)C(=O)N[C@@H](C)c1ccc(C2CCN(c3ccc(OCC)cc3)CC2)cc1 [Example 14.54]
25,0.18 µM,CC(=O)N[C@@H](C)c1ccc(C2CCN(c3ccnc(OCCC4CC4)c3)CC2)cc1 [Example 19.12]
26,0.59 µM,CC(=O)N[C@@H](C)c1ccc(C2CCN(c3ccnc(OC(C)c4ccccc4)c3)CC2)cc1 (some centres unmarked) [Example 19.7]
27,0.75 µM,CC(=O)N[C@@H](C)c1ccc(C2CCN(c3ccc(C4CC4)cn3)CC2)cc1 [Example 10.304]

row,IC50,SMILES
1,0.18 µM,CSc1ccc(-c2cnc(N3CCC(c4ccc([C@H](C)NC(C)=O)cc4)CC3)nc2)cc1 [Example 10.31]
2,0.16 µM,CC(=O)N[C@@H](C)c1ccc(C2CCN(c3ccc(OCC4CCC4)c(F)c3)CC2)cc1 [Example 9.42]
3,0.1 µM,CC(=O)N[C@@H](C)c1ccc(C2CCN(c3ccc(OCCC(F)(F)F)cc3)CC2)cc1 [Example 1.165]
4,0.16 µM,C=CCOc1ccc(N2CCC(c3ccc([C@H](C)NC(C)=O)cc3)CC2)cc1 [Example 9.22]
5,4.7 µM,CCOc1ccc(N2CCC(c3ccc(C(CC)NC(C)=O)cc3)CC2)cc1 (centres unmarked) [Example 1.206]
6,7 µM,CCSc1ccc(-c2cnc(N3CCC(c4ccc([C@H](C)NC(C)=O)cc4)CC3)nc2)cc1 [Example 10.64]
7,2.2 µM,CC(=O)N[C@@H](C)c1ccc(C2CCN(c3ncc(C(=O)N4CCOCC4)cn3)CC2)cc1 [Example 18.94]
8,2.1 µM,"CCOc1ccc(N2CCC(c3ccc(CC(C)NC(C)=O)cc3)CC2)cc1 (centres unmarked) [Example 2.1, N-(2-{4-[1-(4-Ethoxy-phenyl)-piperidin-4-yl]-phenyl}-1-methyl-ethyl)-acetamide]"
9,0.43 µM,CC(=O)N[C@@H](C)c1ccc(C2CCN(c3ccnc(OCC(C)C)n3)CC2)cc1 [Example 11.16]
10,0.67 µM,CCOc1ccc(N2CCC(c3ccc([C@H](C)NC(=O)C4(C#N)CC4)cc3)CC2)cc1 [Example 6.20]
11,0.24 µM,CCCOc1cnc(N2CCC(c3ccc([C@H](C)NC(C)=O)cc3)CC2)c(F)c1 [Example 1.105]
12,18.5 µM,CC(=O)N[C@@H](C)c1ccc(C2CCN(c3ncc(C(=O)NCCN4CCCCC4)cn3)CC2)cc1 [Example 18.59]
13,0.31 µM,CCOc1cccc(-c2cnc(N3CCC(c4ccc([C@H](C)NC(C)=O)cc4)CC3)c(F)c2)c1 [Example 10.307]
14,0.06 µM,C[C@H](NC(=O)N(C)C)c1ccc(C2CCN(c3ccc(OCC4CCC4)cc3)CC2)cc1 [Example 1.142]
15,0.33 µM,COc1ccc(N2CCC(c3ccc([C@H](C)NC(C)=O)cc3)CC2)nc1 [Example 5.2]
16,0.27 µM,CC(=O)N[C@@H](C)c1ccc(C2CCN(c3ncc(-c4ccc(C)c(C)c4)cn3)CC2)cc1 [Example 10.47]
17,0.28 µM,COC(=O)N[C@@H](C)c1ccc(C2CCN(c3ccc(OCC(C)C)cn3)CC2)cc1 [Example 1.134]
18,10.4 µM,CC(=O)N[C@@H](C)c1ccc(C2CCN(c3ncc(-c4ccc(N(C)C)nc4)cn3)CC2)cc1 [Example 10.81]
19,2.3 µM,CC(=O)N[C@@H](C)c1ccc(C2CCN(c3ccnc(NCCC(C)C)n3)CC2)cc1 [Example 11.71]
20,0.13 µM,"CCOc1ccc(N2CCC(c3ccc([C@H](C)NC(C)=O)cc3)CC2)cc1 [Example 1.1, (S)—N-(1-{4-[1-(4-Ethoxy-phenyl)-piperidin-4-yl]-phenyl}-ethyl)-acetamide]"
21,0.19 µM,CCCOc1ccc(N2CCC(c3ccc([C@H](C)NC(=O)OC)cc3)CC2)c(C#N)c1 [Example 1.131]
22,2.6 µM,CC(=O)N[C@@H](C)c1ccc(C2CCN(c3ccc(OCC4CCO4)c(C)c3)CC2)cc1 (some centres unmarked) [Example 8.47]
23,4.8 µM,CC(=O)N[C@@H](C)c1ccc(C2CCN(c3cc(F)ncc3C)CC2)cc1 [Example 5.51]
24,0.23 µM,CCC(C)Oc1cccc(N2CCC(c3ccc([C@H](C)NC(C)=O)cc3)CC2)c1 (some centres unmarked) [Example 1.90]
25,2.6 µM,CC(=O)N[C@@H](C)c1ccc(C2CCN(c3ncccc3C)CC2)cc1 [Example 5.49]
26,2.6 µM,CCOc1ccc(N2CCC(c3ccc([C@H](C)NC(=O)C4(C)CCC4)cc3)CC2)cc1 [Example 6.45]
